Laboratory results published in article PMC6591251, “Discovery of potent necroptosis inhibitors targeting RIPK1 kinase activity for the treatment of inflammatory disorder and cancer metastasis” (Cell Death & Disease, 2019).

Columns and labels:
Assay in all cases: RBC kinase panel
Type in all cases: biochemical
[1] = biological target: T1, c-Src (Homo sapiens, UniProt P12931); conditions: ATP 10 μM, Data1, Data2
T1 construct: purchased Reaction Biology Corporation
Outline: (§1)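 Kinome-wide single-dose profiling: compound at 1 μM versus 369 human enzymes, two replicates per kinase, ATP concentration 10 μM.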

[2] = biological target: T2, FLT1/VEGFR1 (Homo sapiens, UniProt P17948); conditions: ATP 10 μM, Data1, Data2
T2 construct: purchased Reaction Biology Corporation
Outline: as §1

[3] = biological target: T3, CK1a1L (Homo sapiens, UniProt Q8N752); conditions: ATP 10 μM, Data1, Data2
T3 construct: purchased Reaction Biology Corporation
Outline: as §1

[4] = biological target: T4, PLK2 (Homo sapiens, UniProt Q9NYY3); conditions: ATP 10 μM, Data1, Data2
T4 construct: purchased Reaction Biology Corporation
Outline: as §1

[5] = biological target: T5, CDK3/cyclin E (Homo sapiens, UniProt Q00526); conditions: ATP 10 μM, Data1, Data2
T5 construct: purchased Reaction Biology Corporation
Outline: as §1

[6] = biological target: T6, PKG1a (Homo sapiens, UniProt Q13976); conditions: ATP 10 μM, Data1, Data2
T6 construct: purchased Reaction Biology Corporation
Outline: as §1

[7] = biological target: T7, Aurora C (Homo sapiens, UniProt Q9UQB9); conditions: ATP 10 μM, Data1, Data2
T7 construct: purchased Reaction Biology Corporation
Outline: as §1

[8] = biological target: T8, CDK2/cyclin E (Homo sapiens, UniProt P24941); conditions: ATP 10 μM, Data1, Data2
T8 construct: purchased Reaction Biology Corporation
Outline: as §1

[9] = biological target: T9, ALK2/ACVR1 (Homo sapiens, UniProt Q04771); conditions: ATP 10 μM, Data1, Data2
T9 construct: purchased Reaction Biology Corporation
Outline: as §1

[10] = biological target: T10, CDK5/p25 (Homo sapiens, UniProt Q00535); conditions: ATP 10 μM, Data1, Data2
T10 construct: purchased Reaction Biology Corporation
Outline: as §1

[11] = biological target: T11, BTK (Homo sapiens, UniProt Q06187); conditions: ATP 10 μM, Data1, Data2
T11 construct: purchased Reaction Biology Corporation
Outline: as §1

[12] = biological target: T12, PKAcb (Homo sapiens, UniProt P22694); conditions: ATP 10 μM, Data1, Data2
T12 construct: purchased Reaction Biology Corporation
Outline: as §1

[13] = biological target: T13, LATS2 (Homo sapiens, UniProt Q9NRM7); conditions: ATP 10 μM, Data1, Data2
T13 construct: purchased Reaction Biology Corporation
Outline: as §1

[14] = biological target: T14, NEK5 (Homo sapiens, UniProt Q6P3R8); conditions: ATP 10 μM, Data1, Data2
T14 construct: purchased Reaction Biology Corporation
Outline: as §1

[15] = biological target: T15, ERK1 (Homo sapiens, UniProt P27361); conditions: ATP 10 μM, Data1, Data2
T15 construct: purchased Reaction Biology Corporation
Outline: as §1

[16] = biological target: T16, NEK3 (Homo sapiens, UniProt P51956); conditions: ATP 10 μM, Data1, Data2
T16 construct: purchased Reaction Biology Corporation
Outline: as §1

[17] = biological target: T17, FAK/PTK2 (Homo sapiens, UniProt Q05397); conditions: ATP 10 μM, Data1, Data2
T17 construct: purchased Reaction Biology Corporation
Outline: as §1

[18] = biological target: T18, SYK (Homo sapiens, UniProt P43405); conditions: ATP 10 μM, Data1, Data2
T18 construct: purchased Reaction Biology Corporation
Outline: as §1

[19] = biological target: T19, ALK4/ACVR1B (Homo sapiens, UniProt P36896); conditions: ATP 10 μM, Data1, Data2
T19 construct: purchased Reaction Biology Corporation
Outline: as §1

[20] = biological target: T20, RSK3 (Homo sapiens, UniProt Q15349); conditions: ATP 10 μM, Data1, Data2
T20 construct: purchased Reaction Biology Corporation
Outline: as §1

[21] = biological target: T21, MARK1 (Homo sapiens, UniProt Q9P0L2); conditions: ATP 10 μM, Data1, Data2
T21 construct: purchased Reaction Biology Corporation
Outline: as §1

[22] = biological target: T22, CAMK1g (Homo sapiens, UniProt Q96NX5); conditions: ATP 10 μM, Data1, Data2
T22 construct: purchased Reaction Biology Corporation
Outline: as §1

[23] = biological target: T23, STK21/CIT (Homo sapiens, UniProt O14578); conditions: ATP 10 μM, Data1, Data2
T23 construct: purchased Reaction Biology Corporation
Outline: as §1

[24] = biological target: T24, CDK1/cyclin B (Homo sapiens, UniProt P06493); conditions: ATP 10 μM, Data1, Data2
T24 construct: purchased Reaction Biology Corporation
Outline: as §1

[25] = biological target: T25, TRKC (Homo sapiens, UniProt Q16288)
T25 construct: purchased Reaction Biology Corporation
Outline: as §1

[26] = biological target: T26, TAOK2/TAO1 (Homo sapiens, UniProt Q9UL54); conditions: ATP 10 μM, Data1, Data2
T26 construct: purchased Reaction Biology Corporation
Outline: as §1

[27] = biological target: T27, RIPK5 (Homo sapiens, UniProt Q6XUX3); conditions: ATP 10 μM, Data1, Data2
T27 construct: purchased Reaction Biology Corporation
Outline: as §1

[28] = biological target: T28, EPHB4 (Homo sapiens, UniProt P54760); conditions: ATP 10 μM, Data1, Data2
T28 construct: purchased Reaction Biology Corporation
Outline: as §1

[29] = biological target: T29, MAPKAPK2 (Homo sapiens, UniProt P49137); conditions: ATP 10 μM, Data1, Data2
T29 construct: purchased Reaction Biology Corporation
Outline: as §1

[30] = biological target: T30, RET (Homo sapiens, UniProt P07949); conditions: ATP 10 μM, Data1, Data2
T30 construct: purchased Reaction Biology Corporation
Outline: as §1

[31] = biological target: T31, TYK1/LTK (Homo sapiens, UniProt P29376); conditions: ATP 10 μM, Data1, Data2
T31 construct: purchased Reaction Biology Corporation
Outline: as §1

[32] = biological target: T32, WEE1 (Homo sapiens, UniProt P30291); conditions: ATP 10 μM, Data1, Data2
T32 construct: purchased Reaction Biology Corporation
Outline: as §1

[33] = biological target: T33, PEAK1 (Homo sapiens, UniProt Q9H792); conditions: ATP 10 μM, Data1, Data2
T33 construct: purchased Reaction Biology Corporation
Outline: as §1

T25 sequence (Q16288 32-839): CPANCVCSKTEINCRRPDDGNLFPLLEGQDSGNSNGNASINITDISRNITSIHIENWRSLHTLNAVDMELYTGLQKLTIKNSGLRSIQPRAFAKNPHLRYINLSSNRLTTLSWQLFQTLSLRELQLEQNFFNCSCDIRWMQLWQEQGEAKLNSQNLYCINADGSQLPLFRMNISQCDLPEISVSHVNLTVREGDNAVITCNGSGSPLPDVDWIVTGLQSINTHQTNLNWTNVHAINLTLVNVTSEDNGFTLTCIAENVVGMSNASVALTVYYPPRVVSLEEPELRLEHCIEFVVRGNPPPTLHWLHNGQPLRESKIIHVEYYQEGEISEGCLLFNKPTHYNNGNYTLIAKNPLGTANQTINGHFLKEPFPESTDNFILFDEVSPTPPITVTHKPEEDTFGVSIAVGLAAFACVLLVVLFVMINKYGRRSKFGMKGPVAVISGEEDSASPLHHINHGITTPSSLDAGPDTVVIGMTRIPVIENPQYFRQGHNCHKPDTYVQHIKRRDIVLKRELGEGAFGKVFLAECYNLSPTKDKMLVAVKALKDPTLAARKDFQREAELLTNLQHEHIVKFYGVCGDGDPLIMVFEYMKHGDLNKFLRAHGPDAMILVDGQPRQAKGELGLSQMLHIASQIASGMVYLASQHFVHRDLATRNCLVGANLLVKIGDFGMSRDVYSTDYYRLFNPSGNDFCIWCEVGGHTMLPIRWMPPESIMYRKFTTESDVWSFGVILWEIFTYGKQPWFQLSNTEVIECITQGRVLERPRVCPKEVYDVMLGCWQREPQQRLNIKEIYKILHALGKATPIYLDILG
T13 sequence (Q9NRM7 whole entry): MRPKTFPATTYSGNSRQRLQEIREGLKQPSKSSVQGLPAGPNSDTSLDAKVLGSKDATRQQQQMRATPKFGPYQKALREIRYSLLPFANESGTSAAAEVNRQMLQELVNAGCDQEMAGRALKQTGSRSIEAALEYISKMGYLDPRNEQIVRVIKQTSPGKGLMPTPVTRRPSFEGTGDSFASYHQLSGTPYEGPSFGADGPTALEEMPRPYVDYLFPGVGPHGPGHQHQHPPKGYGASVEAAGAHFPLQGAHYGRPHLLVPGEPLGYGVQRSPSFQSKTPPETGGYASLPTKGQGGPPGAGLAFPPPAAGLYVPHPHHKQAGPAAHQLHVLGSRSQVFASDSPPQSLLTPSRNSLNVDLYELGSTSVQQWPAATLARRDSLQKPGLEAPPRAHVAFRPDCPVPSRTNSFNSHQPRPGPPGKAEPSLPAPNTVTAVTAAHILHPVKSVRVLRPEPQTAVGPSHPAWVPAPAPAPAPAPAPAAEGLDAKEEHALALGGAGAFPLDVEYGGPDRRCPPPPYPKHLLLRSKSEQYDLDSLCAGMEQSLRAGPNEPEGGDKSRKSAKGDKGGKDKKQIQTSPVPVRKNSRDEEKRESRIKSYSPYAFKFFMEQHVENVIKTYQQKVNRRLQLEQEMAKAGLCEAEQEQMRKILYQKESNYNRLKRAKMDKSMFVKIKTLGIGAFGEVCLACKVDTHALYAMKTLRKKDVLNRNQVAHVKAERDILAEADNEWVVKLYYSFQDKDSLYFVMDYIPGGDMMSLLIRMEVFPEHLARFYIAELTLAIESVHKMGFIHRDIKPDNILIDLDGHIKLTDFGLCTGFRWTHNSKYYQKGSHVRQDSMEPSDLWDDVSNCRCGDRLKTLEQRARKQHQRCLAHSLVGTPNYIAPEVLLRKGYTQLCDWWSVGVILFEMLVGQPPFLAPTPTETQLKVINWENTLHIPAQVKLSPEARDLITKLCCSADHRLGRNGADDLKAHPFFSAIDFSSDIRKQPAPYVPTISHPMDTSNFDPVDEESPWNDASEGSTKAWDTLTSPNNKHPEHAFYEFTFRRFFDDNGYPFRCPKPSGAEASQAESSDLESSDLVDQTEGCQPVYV
T9 sequence (Q04771 21-509): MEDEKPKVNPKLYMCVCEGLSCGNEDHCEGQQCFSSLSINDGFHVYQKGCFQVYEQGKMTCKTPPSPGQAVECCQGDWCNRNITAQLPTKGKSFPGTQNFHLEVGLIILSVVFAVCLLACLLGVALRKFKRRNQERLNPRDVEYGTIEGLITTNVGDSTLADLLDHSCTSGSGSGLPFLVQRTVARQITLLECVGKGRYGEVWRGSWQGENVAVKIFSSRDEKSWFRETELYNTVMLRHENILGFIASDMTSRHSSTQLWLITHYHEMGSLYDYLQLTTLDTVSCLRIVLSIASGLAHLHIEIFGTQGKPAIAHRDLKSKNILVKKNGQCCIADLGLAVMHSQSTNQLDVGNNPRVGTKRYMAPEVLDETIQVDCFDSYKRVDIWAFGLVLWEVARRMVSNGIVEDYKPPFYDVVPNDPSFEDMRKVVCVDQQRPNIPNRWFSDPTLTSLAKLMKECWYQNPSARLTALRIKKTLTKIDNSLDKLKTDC
T14 sequence (Q6P3R8 whole entry): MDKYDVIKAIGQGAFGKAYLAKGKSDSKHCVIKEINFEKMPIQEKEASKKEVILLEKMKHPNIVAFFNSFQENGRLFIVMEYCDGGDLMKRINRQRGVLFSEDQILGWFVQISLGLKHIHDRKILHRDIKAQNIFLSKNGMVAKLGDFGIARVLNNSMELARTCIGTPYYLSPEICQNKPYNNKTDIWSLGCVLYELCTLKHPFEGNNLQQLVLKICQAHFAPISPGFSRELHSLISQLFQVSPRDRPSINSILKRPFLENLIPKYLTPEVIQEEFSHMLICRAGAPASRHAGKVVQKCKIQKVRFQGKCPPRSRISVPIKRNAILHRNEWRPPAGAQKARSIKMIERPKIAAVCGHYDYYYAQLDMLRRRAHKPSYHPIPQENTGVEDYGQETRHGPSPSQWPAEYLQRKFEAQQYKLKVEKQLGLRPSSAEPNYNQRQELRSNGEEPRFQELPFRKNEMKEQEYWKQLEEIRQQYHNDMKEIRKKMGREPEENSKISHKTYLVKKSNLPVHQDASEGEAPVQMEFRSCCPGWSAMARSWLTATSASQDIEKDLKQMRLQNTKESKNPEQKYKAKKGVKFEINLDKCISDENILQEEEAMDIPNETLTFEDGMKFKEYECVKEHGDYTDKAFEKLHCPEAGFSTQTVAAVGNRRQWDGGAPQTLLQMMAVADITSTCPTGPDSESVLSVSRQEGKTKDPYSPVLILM
T29 sequence (P49137 whole entry): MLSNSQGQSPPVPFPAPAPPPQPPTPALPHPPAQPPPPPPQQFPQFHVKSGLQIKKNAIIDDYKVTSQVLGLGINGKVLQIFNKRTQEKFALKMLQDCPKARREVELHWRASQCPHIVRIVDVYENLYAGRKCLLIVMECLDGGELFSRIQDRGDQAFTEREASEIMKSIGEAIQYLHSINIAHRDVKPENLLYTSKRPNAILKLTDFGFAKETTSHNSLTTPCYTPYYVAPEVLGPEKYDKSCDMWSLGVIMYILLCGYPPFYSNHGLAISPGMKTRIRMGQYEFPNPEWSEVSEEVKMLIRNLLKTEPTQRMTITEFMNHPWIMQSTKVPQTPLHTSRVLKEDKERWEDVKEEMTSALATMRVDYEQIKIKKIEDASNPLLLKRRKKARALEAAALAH
T27 sequence (Q6XUX3 whole entry): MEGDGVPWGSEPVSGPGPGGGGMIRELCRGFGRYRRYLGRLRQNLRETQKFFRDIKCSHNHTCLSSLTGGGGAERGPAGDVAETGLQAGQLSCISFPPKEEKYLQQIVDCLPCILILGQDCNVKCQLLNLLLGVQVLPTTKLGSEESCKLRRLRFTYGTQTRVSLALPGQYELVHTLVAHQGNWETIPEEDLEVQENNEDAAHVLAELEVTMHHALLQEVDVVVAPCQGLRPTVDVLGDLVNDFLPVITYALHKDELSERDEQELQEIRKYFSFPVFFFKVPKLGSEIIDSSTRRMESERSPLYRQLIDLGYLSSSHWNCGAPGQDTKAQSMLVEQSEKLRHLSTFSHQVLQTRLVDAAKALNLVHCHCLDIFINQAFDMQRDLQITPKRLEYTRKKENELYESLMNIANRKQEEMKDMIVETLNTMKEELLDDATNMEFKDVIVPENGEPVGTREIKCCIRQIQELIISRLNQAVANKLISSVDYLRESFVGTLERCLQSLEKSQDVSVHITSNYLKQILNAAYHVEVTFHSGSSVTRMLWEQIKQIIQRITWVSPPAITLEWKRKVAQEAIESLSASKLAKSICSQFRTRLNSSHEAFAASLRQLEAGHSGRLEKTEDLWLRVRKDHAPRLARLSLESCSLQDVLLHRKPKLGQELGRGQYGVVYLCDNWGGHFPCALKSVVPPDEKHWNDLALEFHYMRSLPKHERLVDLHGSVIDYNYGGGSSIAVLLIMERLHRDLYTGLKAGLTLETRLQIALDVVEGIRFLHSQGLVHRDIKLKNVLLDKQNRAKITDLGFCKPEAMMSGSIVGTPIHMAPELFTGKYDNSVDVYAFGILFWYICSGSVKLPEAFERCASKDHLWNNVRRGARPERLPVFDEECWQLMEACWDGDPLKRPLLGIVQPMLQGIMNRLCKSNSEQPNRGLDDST
T7 sequence (Q9UQB9 whole entry): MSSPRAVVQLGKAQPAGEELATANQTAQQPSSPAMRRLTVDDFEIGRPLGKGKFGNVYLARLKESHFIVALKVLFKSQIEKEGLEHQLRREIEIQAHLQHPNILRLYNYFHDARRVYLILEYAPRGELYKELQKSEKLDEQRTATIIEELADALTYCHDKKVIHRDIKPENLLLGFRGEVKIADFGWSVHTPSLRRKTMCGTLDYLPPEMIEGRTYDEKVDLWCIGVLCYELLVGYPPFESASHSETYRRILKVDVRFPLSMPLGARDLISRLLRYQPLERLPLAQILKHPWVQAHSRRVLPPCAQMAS

## CC(=O)Nc1nc2ccc(-c3cnc(C)c(NC(=O)OC4CCCCC4)c3)cc2s1 [PK68, cyclohexyl (5-(2-acetamidobenzo[d]thiazol-6-yl)-2-methylpyridin-3-yl)carbamate]
[1]; 1 μM
  Activity%: 95.17%
[1]
  activity at 1 µM: 96.3%
[2]; 1 μM
  Activity%: 100.00%
[2]
  activity at 1 µM: 100%
[3]; 1 μM
  Activity%: 103.24%
[3]
  activity at 1 µM: 106%
[4]; 1 μM
  Activity%: 102.02%
[4]
  activity at 1 µM: 102%
[5]; 1 μM
  Activity%: 91.48%
[5]
  activity at 1 µM: 91.7%
[6]; 1 μM
  Activity%: 90.22%
[6]
  activity at 1 µM: 90.3%
[7]; 1 μM
  Activity%: 92.22%
[7]
  activity at 1 µM: 94.1%
[8]; 1 μM
  Activity%: 91.99%
[8]
  activity at 1 µM: 93.5%
[9]; 1 μM
  Activity%: 101.72%
[9]
  activity at 1 µM: 103%
[10]; 1 μM
  Activity%: 92.68%
[10]
  activity at 1 µM: 94.1%
[11]; 1 μM
  Activity%: 90.38%
[11]
  activity at 1 µM: 91.2%
[12]; 1 μM
  Activity%: 100.88%
[12]
  activity at 1 µM: 103%
[13]; 1 μM
  Activity%: 93.96%
[13]
  activity at 1 µM: 94.4%
[14]; 1 μM
  Activity%: 95.10%
[14]
  activity at 1 µM: 95.5%
[15]; 1 μM
  Activity%: 87.90%
[15]
  activity at 1 µM: 91.6%
[16]; 1 μM
  Activity%: 116.50%
[16]
  activity at 1 µM: 119%
[17]; 1 μM
  Activity%: 96.95%
[17]
  activity at 1 µM: 98%
[18]; 1 μM
  Activity%: 98.85%
[18]
  activity at 1 µM: 99.5%
[19]; 1 μM
  Activity%: 95.17%
[19]
  activity at 1 µM: 95.5%
[20]; 1 μM
  Activity%: 96.49%
[20]
  activity at 1 µM: 97.6%
[21]; 1 μM
  Activity%: 96.33%
[21]
  activity at 1 µM: 97%
[22]; 1 μM
  Activity%: 92.94%
[22]
  activity at 1 µM: 93%
[23]; 1 μM
  Activity%: 121.90%
[23]
  activity at 1 µM: 125%
[24]; 1 μM
  Activity%: 97.32%
[24]
  activity at 1 µM: 97.6%
[25]; 1 μM, ATP 10 μM, Data1, Data2
  Activity%: 33.96%
  activity at 1 µM: 35.4%
[25]; at 1000 nM
  inhibition at 1 µM: > 50%
[26]; 1 μM
  Activity%: 81.88%
[26]
  activity at 1 µM: 82.6%
[27]; 1 μM
  Activity%: 102.45%
[27]
  activity at 1 µM: 103%
[28]; 1 μM
  Activity%: 99.18%
[28]
  activity at 1 µM: 101%
[29]; 1 μM
  Activity%: 100.37%
[29]
  activity at 1 µM: 101%
[30]; 1 μM
  Activity%: 66.89%
[30]
  activity at 1 µM: 67.7%
[31]; 1 μM
  Activity%: 98.39%
[31]
  activity at 1 µM: 99.8%
[32]; 1 μM
  Activity%: 94.05%
[32]
  activity at 1 µM: 95.7%
[33]; 1 μM
  Activity%: 100.13%
[33]
  activity at 1 µM: 103%
